Assays:
Type in all cases: cell-based, human
[1] = tested on: hESC-derived EBs (H9 and H9.2 lines); assay: Formation of neural tube-like structures from embryoid bodies in the presence of FGF2; details: total 350 EBs from H9 and H9.2 lines, 3 separate experiments
Experimental: Differentiation cultures of ESCs. ESC cultures were incubated with dispase (Gibco BRL, 0.1 mg/ml) at 37° C. for 30 minutes, which removed ESC colonies intact. The ES cell colonies were pelleted, resuspended in ESC medium without FGF2, and cultured for four days in a 25-cm^2 tissue culture flask (Nunc) with a daily medium change. ESC colonies grew as floating EBs whereas any remaining feeder cells adhered to the flask. The feeder cells were removed by transferring the EBs into a new flask. EBs (˜50/flask) were then plated in a 25-cm^2 tissue culture flask (Nunc) in DMEM/F12, supplemented with insulin (25 μg/ml), transferrin (100 μg/ml), progesterone (20 nM), putrescine (60 μM), sodium selenite (30 nM), and heparin (2 μg/ml) in the presence of FGF2 (20 ng/ml) (Zhang et al., supra, 2000; Zhang et al., supra, 1999).

[2] = tested on: hESC-derived neural precursors; assay: BrdU incorporation by dissociated ES cell-derived neural precursors; details: FGF2 20 ng/ml, EGF 20 ng/ml, LIF 5 ng/ml; each alone
Experimental: Histochemical and immunohistochemical staining. To better visualize the rosette formations, cultures with rosettes were rinsed with PBS and fixed in 4% paraformaldehyde and 0.25% glutaraldehyde for 1 hour. The fixed cells were then processed for embedding in plastic resin as described (Zhang et al., supra, 1999). The cultured cells were then sectioned in 1-μm thickness and stained with toluidine blue. For immunostaining, the coverslip cultures were immunostained with the following primary antibodies detected by appropriate fluorescent secondary antibodies detailed elsewhere (Zhang et al., supra, 2000; Zhang et al., supra, 1999): anti-nestin (polyclonal, gift of Dr. R. McKay of NINDS, 1:1,000); anti-polysialylated neuronal cell adhesion molecule (PSA-NCAM, mouse IgM, gift of Dr. G. Rougon of University of Marseille, France, 1:200); anti-Musashi-1 (rat IgG, gift of Dr. H. Okano, University of Tokyo, Japan, 1:500); anti-GFAP (polyclonal, Dako, 1:1,000); anti-human GFAP (Sternberg monoclonals, 1:10,000); O4 (mouse IgM, hybridoma supernatant, 1:50); anti-tyrosine hydroxylase (TH, Pel Freez, 1:500). The remaining antibodies were from Sigma: anti-βIII-tubulin (mouse IgG, 1:500); anti-neurofilament (NF) 68 (mouse IgG, 1:1,000); anti-NF 200 (polyclonal, 1:5,000); anti-MAP2ab (mouse IgG, 1:250); anti-γ-aminobutyric acid (GABA, polyclonal, 1:10,000); anti-glutamate (mouse IgG, 1:10,000). For bromodeoxyuridine (BrdU) incorporation, 4 coverslip cultures in each group were incubated with 2 μM of BrdU for sixteen hours before the cultures were fixed in 4% paraformaldehyde, denatured with 1N HCl and processed for immunolabeling and cell counting (Zhang et al., supra, 2000; Zhang et al., supra, 1999).

[3] = tested on: early rosette cells (Pax6+/Sox1-); assay: RT-PCR of rostrocaudal genes in early rosette cells; details: RA 0.001-1.0 μM or FGF2 20 ng/ml for seven days; dose-dependent
Experimental: RT-PCR amplifications were performed from hESC-derived neuroectodermal cells at different stages and motor neuron differentiation cultures. The following primers were used: […] ID NO:11), [NT] ID NO:12), 318 bp; […] ID NO:13), [NT] ID NO:14), 290 bp; […] ID NO:15), [NT] ID NO:16), 340 bp; […] ID NO:17), [NT] ID NO:18), 429 bp; HoxBl, [NT] ID NO:19), [NT] ID NO:20), 218 bp; GAPDH, [NT] ID NO:1), [NT] ID NO:2), 450 bpi Olig-2, [NT] ID NO:21), [NT] ID NO:22), 315 bp; […] ID NO:23), [NT] ID NO:24), 337 bp; […] ID NO:25), [NT] ID NO:26), 473 bp; […] ID NO:27), [NT] ID NO:28), 459 bp; SHH, [NT] ID NO:29), [NT] ID NO:30), 339 bp; […] ID NO:31), [NT] ID NO:32), 335 bp.

[4] = tested on: voltage-gated sodium channels
[5] = tested on: voltage-activated sodium channels

Compound	EBs forming neural tube-like structures [1] [%]	BrdU incorporation (stimulation of precursor cell proliferation) [2]	Expression of Otx2 and Hox genes (Hox B1, B6, C5, C8) [3]	Effect on inward currents [4]	Effect on inward currents and action potentials [5]
FGF2: growth factor FGF2 (Peprotech; R & D Systems)	94	elevated	decreased expression of Otx2 and increased expression of Hox genes		
NC1=N[C@H](O)[C@H]2[C@H]3O[C@]4(O)O[C@@H]([C@@H](O)[C@@]2(N1)[C@@H]4O)[C@]3(O)CO [TTX, tetrodotoxin]				completely blocked	blocked

— US8153424B2, “Method of in vitro differentiation of neural stem cells, motor neurons and dopamine neurons from primate embryonic stem cells” (Wisconsin Alumni Research Foundation, priority 2001, dated 2012)
